Experimental data published in patent US9334246B2, “Substituted triazines for malaria treatment and chemoprophylaxis” (The United States of America, as represented by the …, priority 2013, dated 2016).
Converted amounts (≈) assume the structure as drawn.

Columns and labels:
[1] = system: P. falciparum W2; assay: Malaria SYBR Green Fluorescence Assay, W2 strain; type: cell-based, Plasmodium falciparum
[2] = system: P. berghei; assay: Thompson Test, in vivo mouse malaria assay; parameters: species or system mice (ICR strain)
[3] = system: P. falciparum D6; assay: Malaria SYBR Green Fluorescence Assay, D6 strain; type: cell-based, Plasmodium falciparum
[4] = system: P. falciparum C235; assay: Malaria SYBR Green Fluorescence Assay, C235 strain; type: cell-based, Plasmodium falciparum
[5] = biological target: hERG potassium ion channel (Homo sapiens, UniProt Q12809); assay: hERG patch clamp assay (% inhibition at 10 μM); conditions: for hERG (% inhibition): 10 μM
hERG potassium ion channel, sequence (Q12809 whole entry): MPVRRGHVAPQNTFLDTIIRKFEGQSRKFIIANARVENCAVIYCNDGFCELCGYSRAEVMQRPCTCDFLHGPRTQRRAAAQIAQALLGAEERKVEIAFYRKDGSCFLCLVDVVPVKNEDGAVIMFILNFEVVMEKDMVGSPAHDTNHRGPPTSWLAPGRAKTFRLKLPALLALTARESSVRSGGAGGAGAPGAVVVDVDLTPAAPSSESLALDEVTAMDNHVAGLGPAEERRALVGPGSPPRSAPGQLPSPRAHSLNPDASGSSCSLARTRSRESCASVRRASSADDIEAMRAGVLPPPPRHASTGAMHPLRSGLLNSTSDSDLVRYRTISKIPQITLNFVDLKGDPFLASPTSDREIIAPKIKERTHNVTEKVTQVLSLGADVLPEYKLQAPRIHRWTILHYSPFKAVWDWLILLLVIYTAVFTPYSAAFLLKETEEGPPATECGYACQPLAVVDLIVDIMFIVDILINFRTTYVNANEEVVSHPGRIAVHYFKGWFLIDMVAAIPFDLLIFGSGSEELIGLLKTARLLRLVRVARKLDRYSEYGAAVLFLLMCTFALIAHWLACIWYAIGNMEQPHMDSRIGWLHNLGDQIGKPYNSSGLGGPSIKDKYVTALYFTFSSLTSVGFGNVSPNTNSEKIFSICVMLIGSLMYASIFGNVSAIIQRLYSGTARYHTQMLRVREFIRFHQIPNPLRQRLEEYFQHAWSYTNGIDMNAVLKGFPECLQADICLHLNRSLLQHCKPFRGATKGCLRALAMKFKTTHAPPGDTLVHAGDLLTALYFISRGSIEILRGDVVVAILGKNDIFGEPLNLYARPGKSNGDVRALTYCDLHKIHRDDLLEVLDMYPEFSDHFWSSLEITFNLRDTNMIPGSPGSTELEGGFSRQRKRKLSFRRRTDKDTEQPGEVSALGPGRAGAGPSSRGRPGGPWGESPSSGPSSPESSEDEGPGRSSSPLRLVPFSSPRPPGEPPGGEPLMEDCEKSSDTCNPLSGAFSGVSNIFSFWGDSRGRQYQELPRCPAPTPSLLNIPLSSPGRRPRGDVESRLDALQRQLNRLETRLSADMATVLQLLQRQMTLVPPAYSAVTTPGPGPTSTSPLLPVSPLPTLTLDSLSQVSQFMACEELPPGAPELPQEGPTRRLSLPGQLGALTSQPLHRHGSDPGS

[6] = Plasmodium falciparum, SYBR Green Assay
[7] = % inhibition at 10 μM, patch clamp

Molecule	W2 ([1]; SYBR Green Assay) [ng/mL]	D6 ([3]; SYBR Green Assay) [ng/mL]	C235 ([4]; SYBR Green Assay) [ng/mL]	hERG [5, 7] [%]	other results
NC1(CNc2nc(-c3ccccc3)nc(C(Cl)(Cl)Cl)n2)CCOCC1 [Compound 313]	2	7	14	–	In vivo Results Thompson Assay (n/N Cures or Suppressive) ([2]; (80 × 3): 80 mg/kg for 3 days): (80 × 3) 1/5 Cures
NC1(CNC2═NC(═NC(═N2)C2═CC═C(C═C2)C(Cl)(Cl)Cl)C(Cl)(Cl)Cl)CCCCC1 [Compound 666]	2	3	5	–	In vivo Results Thompson Assay (n/N Cures or Suppressive) ([2]; (80 × 3): 80 mg/kg for 3 days): (80 × 3) 2/4 Cures
ClC(Cl)(Cl)c1nc(Nc2ccncc2)nc(-c2ccc3ccccc3c2)n1 [Compound 235]	8	14	10	–	In vivo Results Thompson Assay (n/N Cures or Suppressive) ([2]; (80 × 3): 80 mg/kg for 3 days): (80 × 3) Suppressive
CC(C)CN1CCC(Nc2nc(-c3ccc(C(C)(C)C)cc3)nc(C(Cl)(Cl)Cl)n2)CC1 [Compound 694, CC(C)CN1CCC(CC1)NC1═NC(═NC(═N1)C(Cl)(Cl)Cl)C1═CC═C(C═C1)C(C)(C)C]	23	24	37	–	In vivo Results Thompson Assay (n/N Cures or Suppressive) ([2]; (80 × 3): 80 mg/kg for 3 days): (80 × 3) Suppressive
CC(CNc1nc(-c2ccc(Cl)c(Cl)c2)nc(C(Cl)(Cl)Cl)n1)N(C)C (centres unmarked) [Example 1, N^1-(4-(3,4-dichlorophenyl)-6-(trichloromethyl)-1,3,5-triazin-2-yl)-N^2,N^2-dimethylpropane-1,2-diamine]	–	–	–	–	hERG ([5]; hERG activity as % inhibition): 95%; IC50 [1, 6]: 0.0294 µg/mL (≈ 0.0663 µM); IC50 [3, 6]: 0.0416 µg/mL (≈ 0.0937 µM); IC50 [4, 6]: 0.0367 µg/mL (≈ 0.0828 µM)
CN1CCCC1CCNc1nc(-c2ccc(F)cc2)nc(C(Cl)(Cl)Cl)n1 (centres unmarked) [Cmpd 382]	–	–	–	–	hERG (% inhibition) [5]: 105%; W2 (SYBR Green Assay IC50) [1]: 0.02 µg/mL; D6 (SYBR Green Assay IC50) [3]: 0.017 µg/mL; C235 (SYBR Green Assay IC50) [4]: 0.036 µg/mL
ClC(Cl)(Cl)c1nc(NCCN2CCCC2)nc(-c2ccc(OCc3ccccc3)cc2)n1 [Cmpd 35]	125	194	186	56	–
ClC(C1═NC(NCCO)═NC(C2═CC(C(F)(F)F)═CC═C2)═N1)(Cl)Cl [Compound 647]	–	–	–	–	hERG (% inhibition) [5]: 100%; W2 (SYBR Green Assay IC50) [1]: 0.023 µg/mL; D6 (SYBR Green Assay IC50) [3]: 0.035 µg/mL; C235 (SYBR Green Assay IC50) [4]: 0.039 µg/mL
CN1CCC(Nc2nc(-c3ccccc3)nc(C(Cl)(Cl)Cl)n2)CC1 [Cmpd 237]	32	47	31	107	–
CN1CCN(CC1)c2ccc(Nc3nc(NCCN4CCCC4)nc(n3)C(Cl)(Cl)Cl)cc2 [Compound 733]	36	117	87	–	hERG ([5]; hERG activity as % inhibition): 55%
CC1(C)CC(Nc2nc(-c3ccccc3)nc(C(Cl)(Cl)Cl)n2)CC(C)(C)N1 [Compound 320]	2	11	20	–	In vivo Results Thompson Assay (n/N Cures or Suppressive) ([2]; (40 × 3): 40 mg/kg for 3 days): 1/5; In vivo Results Thompson Assay (n/N Cures or Suppressive) ([2]; (80 × 3): 80 mg/kg for 3 days): 4/4
CN1CCCC1CCNc1nc(-c2ccc(Cl)cc2)nc(C(Cl)(Cl)Cl)n1 (centres unmarked) [Cmpd 91]	19	31	32	79	–
ClC(Cl)(Cl)c1ccc(-c2nc(NCCc3ccccn3)nc(C(Cl)(Cl)Cl)n2)cc1 [Cmpd 163]	20	50	61	5	–
CC(CN(C)C)Nc1nc(Nc2cc(Cl)cc(Cl)c2)nc(n1)C(Cl)(Cl)Cl [Compound 639]	–	–	–	–	hERG (% inhibition) [5]: 25%; W2 (SYBR Green Assay IC50) [1]: 0.007 µg/mL; D6 (SYBR Green Assay IC50) [3]: 0.013 µg/mL; C235 (SYBR Green Assay IC50) [4]: 0.009 µg/mL
CCC(N)(CC)CNc1nc(-c2ccc(Cl)cc2)nc(C(Cl)(Cl)Cl)n1 [Cmpd 356]	–	–	–	–	hERG (% inhibition) [5]: 44%; W2 (SYBR Green Assay IC50) [1]: 0.003 µg/mL; D6 (SYBR Green Assay IC50) [3]: 0.003 µg/mL; C235 (SYBR Green Assay IC50) [4]: 0.007 µg/mL
CN1CCN(c2nc(-c3ccc(-c4ccccc4)cc3)nc(C(Cl)(Cl)Cl)n2)CC1 [Cmpd 298]	33	62	87	10	–
Clc1cc(Cl)cc(-c2nc(NCCN3CCCC3)nc(C(Cl)(Cl)Cl)n2)c1 [Cmpd 202]	10	7	7	51	–
CC(C)(C)c1ccc(-c2nc(N3CCNCC3)nc(C(Cl)(Cl)Cl)n2)cc1 [Cmpd 161]	32	88	98	15	–
CN1CCCC1CCNc1nc(Nc2ccccc2N2CCOCC2)nc(C(Cl)(Cl)Cl)n1 (centres unmarked) [Cmpd 64]	75	140	121	100	–
ClC(Cl)(Cl)c1nc(nc(n1)c2ccccc2)N3CC4CC3CN4 [Compound 720]	35	56	89	–	hERG ([5]; hERG activity as % inhibition): 84%
CCN(CC)CCNc1nc(-c2ccc3ccccc3c2)nc(C(Cl)(Cl)Cl)n1 [Cmpd 220]	8	40	12	66	–
4-(4-(((1-ethylpiperidin-4-yl)methyl)amino)-6-(trichloromethyl)-1,3,5-triazin-2-yl)benzoic acid [Example 12]	11	5	4	–	hERG ([5]; hERG activity as % inhibition): 39%
CCN(CC)CC(C)Nc1nc(Nc2cc(Cl)cc(Cl)c2)nc(n1)C(Cl)(Cl)Cl [Compound 644]	–	–	–	–	hERG (% inhibition) [5]: 100%; W2 (SYBR Green Assay IC50) [1]: 0.009 µg/mL; D6 (SYBR Green Assay IC50) [3]: 0.131 µg/mL; C235 (SYBR Green Assay IC50) [4]: 0.014 µg/mL
CSc1ccc(-c2nc(NCCC3CCCN3C)nc(C(Cl)(Cl)Cl)n2)cc1 (centres unmarked) [Cmpd 45]	91	43	74	38	–
CS(=O)(=O)c1ccc(-c2nc(NCCN3CCCC3)nc(C(Cl)(Cl)Cl)n2)cc1 [Cmpd 39]	45	85	92	90	–
